How the values were obtained:
Ba/F3 ETV6-TRKB = Ba/F3 ETV6-TRKB (Homo sapiens, UniProt Q16620); assay: Ba/F3 cell proliferation assay, ETV6-TRKB; format: cell-based; conditions: Ba/F3 stable cells, 72 hours, CellTiter-Glo; read-out: ETV6-TRKB IC50
Source text: (§1) Genes encoding EML4-ALK v1 (variant 1), EML4-ALK v1 G1202R, EML4-ALK v1 I1171IN, EML4-ALK v1 D1203N, EML4-ALK v1 I1171N/D1203N, and ETV6-TRKB were synthesized at GeneRay, cloned into the retroviral construct pMSCV-puro (Biovector), and packaged into retroviral particles. The virus was used to infect Ba/F3 cells (RIKEN) at multiplicity of infection=1 for 1 day. Infected cells were rescued in media (RPMI-1640 with 10% fetal bovine serum and 1% streptomycin and penicillin) supplemented with mouse IL-3 (10 ng/mL) for 2 days, and stable cell lines were selected by IL-3 withdrawal and puromycin (0.8 μg/mL) for 7 days. Monoclones were selected by single-cell dilution in IL-3-free medium containing puromycin (0.8 μg/mL). Transformation of desired genes was confirmed by Sanger sequencing and western blot using the following antibodies: ALK (CST #3633) and pan-TRK (Abcam #76291).
(§2) Stable cells were plated in a 384-well plate. Test compounds were then added in a 3-fold dilution series and incubated for 72 hours. CellTiter-Glo reagent (Promega) was added. Luminescence was measured on a plate reader. Half-maximal inhibitory concentration (ICso) was calculated from percent inhibition and inhibitor concentration using four-parameter logistic regression. Compound potency can be interpreted by binning IC50 values: bin A for high potency, 0.1 nM IC50<50 nM; bin B for medium potency, 50 nM<IC50<500 nM; and bin C for low potency, IC50>500 nM. […] Exemplary data is given in Table 4 (nd is not determined).
(§3) Ba/F3 proliferation is driven by the transduced oncogenes in the same way that cancer cell proliferation in humans is driven by the expression of equivalent oncogenes.

[1] = target: Ba/F3 EML4-ALK v1 I1171N/D1203N (Homo sapiens (Human), UniProt Q9HC35+Q9UM73, D1203N/I1171N); assay: Ba/F3 cell proliferation assay, EML4-ALK v1 I1171N/D1203N; format: cell-based; conditions: for IC50: Ba/F3 stable cells, 72 hours, CellTiter-Glo; for ETV6-TRKB / EML4-ALK v1 I1171N/D1203N / Selectivity for Ba/F3 EML4-ALK v1 I1171N-D1203N IC50 over Ba/F3 ETV6-TRKB IC50: TRKB selectivity, ratio of Ba/F3 IC50 values; for Selectivity for Ba/F3 EML4-ALK v1 I1171N-D1203N IC50 over Ba/F3 ETV6-TRKB IC50: Table 6 bins
Source text: as §1, §2, §3
TRKB selectivity was calculated by dividing a compound's TRKB potency by its primary target potency (e.g., ETV6-TRKB IC50/EML4-ALK v1 IC50). Compound selectivity can be interpreted by binning ratio values: bin A for very high selectivity, ratio≥30-fold; bin B for high selectivity, ratio≥10-fold but<30; bin C for moderate selectivity, ratio≥1 but<10; and bin D for low selectivity, ratio<1. […] (nd=not determined).
Additional exemplified compounds were also tested against ALK-INDN and TRKB. The TRKB selectivity was calculated by dividing a compound's TRKB potency by its primary target potency (e.g., ETV6-TRKB IC50/EMIL4-ALK I1171N-D1203N v1 IC50). Compound selectivity can be interpreted by binning ratio values: bin AA for the selectivity with the ratio≥30-fold; bin BB for the selectivity with the ratio≥10-fold but<30; bin CC for the selectivity with the ratio≥5 but<10; bin DD for the selectivity with the ratio≥1 but<5; and bin EE for the selectivity with the ratio<1.

Sequence of Ba/F3 EML4-ALK v1 I1171N/D1203N (Q9UM73 other isoform, or with tags, fused parts or gaps I1171N/D1203N): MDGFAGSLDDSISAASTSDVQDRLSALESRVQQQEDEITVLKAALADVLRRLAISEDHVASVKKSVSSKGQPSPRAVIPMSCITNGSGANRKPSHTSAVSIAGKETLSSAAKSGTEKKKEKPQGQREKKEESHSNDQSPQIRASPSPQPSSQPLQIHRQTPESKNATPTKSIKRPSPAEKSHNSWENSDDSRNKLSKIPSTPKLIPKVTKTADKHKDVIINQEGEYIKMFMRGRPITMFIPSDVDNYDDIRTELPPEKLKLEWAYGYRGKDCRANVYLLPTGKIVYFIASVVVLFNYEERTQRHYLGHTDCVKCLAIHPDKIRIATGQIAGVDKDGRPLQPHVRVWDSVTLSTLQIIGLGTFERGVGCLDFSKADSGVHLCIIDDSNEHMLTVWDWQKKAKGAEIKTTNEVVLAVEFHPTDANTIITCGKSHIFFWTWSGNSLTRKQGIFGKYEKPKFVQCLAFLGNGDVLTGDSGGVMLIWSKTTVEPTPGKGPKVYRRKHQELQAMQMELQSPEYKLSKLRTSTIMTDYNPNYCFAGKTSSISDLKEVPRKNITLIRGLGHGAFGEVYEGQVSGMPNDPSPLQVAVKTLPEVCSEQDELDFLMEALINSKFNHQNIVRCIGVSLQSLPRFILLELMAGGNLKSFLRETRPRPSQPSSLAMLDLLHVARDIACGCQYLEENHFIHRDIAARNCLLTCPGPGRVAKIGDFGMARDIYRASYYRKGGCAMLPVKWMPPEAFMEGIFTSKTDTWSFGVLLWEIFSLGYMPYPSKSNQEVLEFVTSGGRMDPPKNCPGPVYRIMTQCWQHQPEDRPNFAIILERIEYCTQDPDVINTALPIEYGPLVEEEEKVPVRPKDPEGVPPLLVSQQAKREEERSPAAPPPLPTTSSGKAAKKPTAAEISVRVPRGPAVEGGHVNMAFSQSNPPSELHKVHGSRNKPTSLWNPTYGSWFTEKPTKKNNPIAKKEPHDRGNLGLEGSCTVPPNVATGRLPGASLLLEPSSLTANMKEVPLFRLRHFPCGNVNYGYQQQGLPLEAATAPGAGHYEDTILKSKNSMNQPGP
Sequence of Ba/F3 ETV6-TRKB (Q16620 32-822 limits assumed, stated change not applied): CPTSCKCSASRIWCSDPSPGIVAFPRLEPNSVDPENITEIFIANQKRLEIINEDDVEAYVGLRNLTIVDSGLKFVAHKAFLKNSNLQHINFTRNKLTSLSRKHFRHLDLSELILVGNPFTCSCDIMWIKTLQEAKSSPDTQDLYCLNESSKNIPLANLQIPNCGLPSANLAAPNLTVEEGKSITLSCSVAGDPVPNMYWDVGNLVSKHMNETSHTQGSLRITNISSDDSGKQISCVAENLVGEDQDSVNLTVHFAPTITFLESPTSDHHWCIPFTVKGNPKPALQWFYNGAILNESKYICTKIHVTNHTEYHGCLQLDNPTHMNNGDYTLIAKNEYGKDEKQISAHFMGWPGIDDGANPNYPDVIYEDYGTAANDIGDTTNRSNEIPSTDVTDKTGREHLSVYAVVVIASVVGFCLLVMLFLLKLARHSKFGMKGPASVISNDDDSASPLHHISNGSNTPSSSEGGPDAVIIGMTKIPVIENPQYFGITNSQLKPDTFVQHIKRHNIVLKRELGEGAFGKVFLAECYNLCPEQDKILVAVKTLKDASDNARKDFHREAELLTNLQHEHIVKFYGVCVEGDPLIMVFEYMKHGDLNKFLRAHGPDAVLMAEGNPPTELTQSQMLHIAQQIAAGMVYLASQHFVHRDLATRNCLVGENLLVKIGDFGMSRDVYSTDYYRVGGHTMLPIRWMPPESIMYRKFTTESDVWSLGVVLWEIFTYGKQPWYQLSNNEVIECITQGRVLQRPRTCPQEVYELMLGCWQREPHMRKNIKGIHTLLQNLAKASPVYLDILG

| Structure (SMILES) | IC50 (Ba/F3 ETV6-TRKB) [nM] | IC50 [1] [nM] | ETV6-TRKB / EML4-ALK v1 I1171N/D1203N [1] | Selectivity for Ba/F3 EML4-ALK v1 I1171N-D1203N IC50 over Ba/F3 ETV6-TRKB IC50 [1] |
| --- | --- | --- | --- | --- |
| C[C@H]1Oc2cc(cnc2N)-c2c(C#N)nn(C)c2C(=O)c2cccnc2-c2c(F)cc(F)cc21 [Example 22, (R)-23-amino-15,17-difluoro-5-methyl-20-methyl-7-oxo-21-oxa-4,5,12,24-tetraazapentacyclo[20.3.1.0^2,^6.0^8,^13.0^14,^19]hexacosa-1(25),2(6),3,8,10,12,14,16,18,22(26),23-undecaene-3-carbonitrile] | > 500 | 0.1 to 50 | A (bin A for very high selectivity, ratio≥30-fold) | AA (bin AA for the selectivity with the ratio≥30-fold) |
| C[C@H]1Oc2cc(cnc2N)-c2c(CC3CC3)nn(C(=O)N(C)C)c2Cc2cn(C)nc2-c2c(F)cc(F)cc21 [Example 23, (19R)-22-amino-3-(cyclopropylmethyl)-14,16-difluoro-N,N,10,19-tetramethyl-20-oxa-4,5,10,11,23-pentaazapentacyclo[19.3.1.0^2,6.0^8,12.0^13,18]pentacosa-1(24),2(6),3,8,11,13,15,17,21(25),22-decaene-5-carboxamide] | > 500 | 50 to 500 | A (bin A for very high selectivity, ratio≥30-fold) |  |
| CCc1nn(C(=O)N(C)C)c2c1-c1cnc(N)c(c1)O[C@H](C)c1cc(F)ccc1-c1ncccc1C2 [Example 24, (R)-5-(N,N-dimethylcarbamoyl)-3-ethyl-17-fluoro-20-methyl-21-oxa-4,5,12,24-tetraazapentacyclo[20.3.1.0^2,^6.0^8,^13.0^14,^19]hexacosa-1(25),2(6),3,8(13),9,11,14,16,18,22(26),23-undecaen-23-ylamine] | 0.1 to 50 | 0.1 to 50 | C (bin C for moderate selectivity, ratio≥1 but<10) |  |
| C[C@H]1Oc2cc(cnc2N)-c2c(C#N)nn(C)c2C(=O)c2cccnc2-c2ccc(F)cc21 [Example 25, (R)-23-amino-17-fluoro-5-methyl-20-methyl-7-oxo-21-oxa-4,5,12,24-tetraazapentacyclo[20.3.1.0^2,^6.0^8,^13.0^14,^19]hexacosa-1(25),2(6),3,8(13),9,11,14,16,18,22(26),23-undecaene-3-carbonitrile] | > 500 | 0.1 to 50 | A (bin A for very high selectivity, ratio≥30-fold) | AA (bin AA for the selectivity with the ratio≥30-fold) |
| C[C@H]1Oc2cc(cnc2N)-c2c(C#N)nn(C)c2C(=O)c2cn(C)nc2-c2c(F)cc(F)cc21 [Example 28, (R)-22-amino-14,16-difluoro-5,10-dimethyl-19-methyl-7-oxo-20-oxa-4,5,10,11,23-pentaazapentacyclo[19.3.1.0^2,^6.0^8,^12.0^13,^18]pentacosa-1(24),2(6),3,8,11,13,15,17,21(25),22-decaene-3-carbonitrile] | > 500 | 50 to 500 | A (bin A for very high selectivity, ratio≥30-fold) |  |
| CC(C)N(C)C(=O)c1nn(CC2CC2)c2c1Cc1cn(C)nc1-c1ccc(F)cc1[C@@H](C)Oc1cc-2cnc1N [Example 37, N-isopropyl-N-methyl-(R)-22-amino-3-(cyclopropylmethyl)-16-fluoro-10-methyl-19-methyl-20-oxa-3,4,10,11,23-pentaazapentacyclo[19.3.1.0^2,^6.0^8,^12.0^13,^18]pentacosa-1(24),2(6),4,8,11,13,15,17,21(25),22-decaene-5-carboxamide] | > 500 | 50 to 500 |  |  |
| C[C@H]1Oc2cc(cnc2N)-c2c(nn(C)c2C#N)Oc2cccnc2-c2ccc(F)cc21 [Example 59, (R)-23-amino-17-fluoro-4-methyl-20-methyl-7,21-dioxa-4,5,12,24-tetraazapentacyclo[20.3.1.0^2,^6.0^8,^13.0^14,^19]hexacosa-1(25),2,5,8(13),9,11,14,16,18,22(26),23-undecaene-3-carbonitrile] | 50 to 500 | 0.1 to 50 | B (bin B for high selectivity, ratio≥10-fold but<30) |  |
| C[C@H]1Oc2cc(cnc2N)-c2c(nn(C)c2C#N)Oc2cccnc2-c2c(F)cc(F)cc21 [Example 61, (R)-23-amino-15,17-difluoro-4-methyl-20-methyl-7,21-dioxa-4,5,12,24-tetraazapentacyclo[20.3.1.0^2,^6.0^8,^13.0^14,^19]hexacosa-1(25),2,5,8(13),9,11,14,16,18,22(26),23-undecaene-3-carbonitrile] | 50 to 500 | 0.1 to 50 |  |  |
| Cc1cc2n(n1)-c1ccc(F)cc1[C@@H](C)Oc1cc(cnc1N)-c1c(c(C(=O)N(C)C)nn1C1CCC1)C2 [Example 67, N,N-dimethyl-(R)-22-amino-3-cyclobutyl-16-fluoro-10,19-dimethyl-20-oxa-3,4,11,12,23-pentaazapentacyclo[19.3.1.0^2,^6.0^8,^12.0^13,^18]pentacosa-1(24),2(6),4,8,10,13,15,17,21(25),22-decaene-5-carboxamide] | 50 to 500 | 0.1 to 50 |  |  |
| C[C@H]1Oc2cc(cnc2N)-c2c(nn(C)c2C#N)Cc2cccnc2-c2c(F)cc(F)cc21 [Example E1, reference compound] |  |  |  | BB (bin BB for the selectivity with the ratio≥10-fold but<30) |
| C[C@H]1Oc2cc(cnc2N)-c2c(C#N)nn(C)c2Cc2cccnc2-c2c(F)cc(F)cc21 [Example E2, reference compound] |  |  |  | DD (bin DD for the selectivity with the ratio≥1 but<5) |
| Cc1cc2n(n1)-c1ccc(F)cc1[C@@H](C)Oc1cc(cnc1N)-c1c(C#N)nn(C)c1C2 [Example E3, reference compound] |  |  |  | EE (bin EE for the selectivity with the ratio<1) |
| CCn1ncc2c1-c1cnc(N)c(c1)O[C@H](C)c1cc(F)ccc1-c1nn(C)cc1C2 [Example E4, reference compound] |  |  |  | EE (bin EE for the selectivity with the ratio<1) |
| CC(C)n1nc2c(c1C#N)-c1cnc(N)c(c1)O[C@H](C)c1cc(F)ccc1-c1ncccc1C2 [Example E5, reference compound] |  |  |  | CC (bin CC for the selectivity with the ratio≥5 but<10) |
| Cc1nc2c(s1)Cc1c(c(C#N)nn1C)-c1cnc(N)c(c1)O[C@H](C)c1cc(F)ccc1-2 [Example E6, reference compound] |  |  |  | EE (bin EE for the selectivity with the ratio<1) |
| C[C@H]1Oc2cc(cnc2N)-c2c(nn(C)c2C#N)Cc2cccnc2-c2ccc(F)cc21 [Example E7, reference compound] |  |  |  | CC (bin CC for the selectivity with the ratio≥5 but<10) |
| C[C@H]1Oc2cc(cnc2N)-c2c(C#N)nn(C)c2Cc2cccnc2-c2ccc(F)cc21 [Example E8, reference compound] |  |  |  | DD (bin DD for the selectivity with the ratio≥1 but<5) |
| CCn1ncc2c1-c1cnc(N)c(c1)O[C@H](C)c1cc(F)ccc1-c1ncccc1C2 [Example E10, reference compound] |  |  |  | EE (bin EE for the selectivity with the ratio<1) |
| C[C@H]1Oc2cc(cnc2N)-c2c(cnn2CC2CC2)Cc2cccnc2-c2ccc(F)cc21 [Example E11, reference compound] |  |  |  | DD (bin DD for the selectivity with the ratio≥1 but<5) |
| CCn1nc2c(c1C#N)-c1cnc(N)c(c1)O[C@H](C)c1cc(F)ccc1-c1ncccc1C2 [Example E12, reference compound] |  |  |  | CC (bin CC for the selectivity with the ratio≥5 but<10) |
| C[C@H]1Oc2cc(cnc2N)-c2c(nn(C)c2C#N)Cc2cn(C)nc2-c2c(F)cc(F)cc21 [Example E13, reference compound] |  |  |  | BB (bin BB for the selectivity with the ratio≥10-fold but<30) |
